Data from patent US20210253568A1, “AZAINDOLE DERIVATIVES AS RHO-KINASE INHIBITORS” (CHIESI FARMACEUTICI S.p.A., priority 2018, published 2021).

How the values were obtained:
ROCK 2 = ROCK 2 (Homo sapiens, UniProt O75116); assay: In vitro Rho kinase inhibitory activity assay (ADP-Glo), Rho kinase 2; assay type: biochemical; conditions: Ki by Cheng-Prusoff from IC50; 10 μM ATP, 25° C., expressed as range of activity
Protocol: (§1) The effectiveness of compounds of the present invention to inhibit Rho kinase activity can be determined in a 10 μl assay containing 40 mM Tris pH7.5, 20 mM MgCl2 0.1 mg/mi BSA, 50 μM DTT and 2.5 μM peptide substrate (Myelin Basic Protein) using an ADP-Glo kit (Promega). Compounds were dissolved in DMSO such that the final concentration of DMSO was 1% in the assay. All reactions/incubations are performed at 25° C. Compound (2 ul) and either Rho kinase 1 or 2 (4 μl) were mixed and incubated for 30 mins. Reactions were initiated by addition of ATP (4 μl) such that the final concentration of ATP in the assay was 10 μM. After a 1 hour incubation 10 μl of ADP-Glo Reagent was added and after a further 45 minute incubation 20 ul of Kinase Detection Buffer was added and the mixture incubated for a further 30 minutes. The luminescent signal was measured on a luminometer. […] Compounds were tested in dose-response format and the inhibition of kinase activity was calculated at each concentration of compound. To determine the IC50 (concentration of compound required to inhibit 50% of the enzyme activity) data were fit to a plot of % inhibition vs Log10 compound concentration using a sigmoidal fit with a variable slope and fixing the maximum to 100% and the minimum to 0%. To determine the Ki values the Cheng-Prusoff equation was utilized (Ki=IC50/(1+[S]/Km).

ROCK 1 = ROCK 1 (Homo sapiens, UniProt Q13464); assay: In vitro Rho kinase inhibitory activity assay (ADP-Glo), Rho kinase 1; assay type: biochemical; conditions: Ki by Cheng-Prusoff from IC50; 10 μM ATP, 25° C., expressed as range of activity
ROCK 1, sequence (Q13464 whole entry): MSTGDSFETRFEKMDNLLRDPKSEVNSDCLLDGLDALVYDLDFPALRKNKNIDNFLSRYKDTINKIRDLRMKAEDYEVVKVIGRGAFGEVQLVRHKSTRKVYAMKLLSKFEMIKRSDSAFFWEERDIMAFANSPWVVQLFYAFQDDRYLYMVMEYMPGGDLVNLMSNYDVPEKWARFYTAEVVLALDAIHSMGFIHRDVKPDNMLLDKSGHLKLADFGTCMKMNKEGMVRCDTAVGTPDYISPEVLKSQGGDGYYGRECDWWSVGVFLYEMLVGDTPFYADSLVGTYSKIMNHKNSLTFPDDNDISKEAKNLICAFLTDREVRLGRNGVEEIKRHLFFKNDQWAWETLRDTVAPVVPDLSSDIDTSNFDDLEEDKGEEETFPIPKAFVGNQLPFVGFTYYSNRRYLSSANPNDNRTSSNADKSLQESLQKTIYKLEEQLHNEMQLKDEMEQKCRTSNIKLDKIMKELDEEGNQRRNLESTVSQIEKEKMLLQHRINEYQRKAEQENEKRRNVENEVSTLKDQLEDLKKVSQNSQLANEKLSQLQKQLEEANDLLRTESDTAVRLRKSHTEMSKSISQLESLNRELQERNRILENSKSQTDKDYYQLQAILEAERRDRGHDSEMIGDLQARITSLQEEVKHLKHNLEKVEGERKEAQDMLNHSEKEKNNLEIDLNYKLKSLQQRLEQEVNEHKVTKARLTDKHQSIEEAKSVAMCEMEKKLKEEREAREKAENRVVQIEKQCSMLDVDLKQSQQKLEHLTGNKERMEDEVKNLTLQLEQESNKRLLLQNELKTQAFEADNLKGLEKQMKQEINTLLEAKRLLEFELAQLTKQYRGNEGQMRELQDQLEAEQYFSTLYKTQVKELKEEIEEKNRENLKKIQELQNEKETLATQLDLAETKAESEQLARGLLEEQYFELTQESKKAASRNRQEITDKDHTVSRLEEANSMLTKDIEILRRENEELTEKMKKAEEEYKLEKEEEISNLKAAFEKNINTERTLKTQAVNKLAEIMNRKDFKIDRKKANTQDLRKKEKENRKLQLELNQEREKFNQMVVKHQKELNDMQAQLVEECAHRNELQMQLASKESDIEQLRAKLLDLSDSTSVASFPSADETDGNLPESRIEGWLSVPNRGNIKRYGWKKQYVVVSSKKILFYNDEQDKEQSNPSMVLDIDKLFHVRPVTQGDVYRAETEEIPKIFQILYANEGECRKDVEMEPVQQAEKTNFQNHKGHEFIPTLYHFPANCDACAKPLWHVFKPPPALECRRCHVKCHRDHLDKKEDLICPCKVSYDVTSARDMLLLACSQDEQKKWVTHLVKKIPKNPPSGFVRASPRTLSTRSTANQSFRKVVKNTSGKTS
Protocol: as §1

ROCK 2, sequence (O75116 whole entry): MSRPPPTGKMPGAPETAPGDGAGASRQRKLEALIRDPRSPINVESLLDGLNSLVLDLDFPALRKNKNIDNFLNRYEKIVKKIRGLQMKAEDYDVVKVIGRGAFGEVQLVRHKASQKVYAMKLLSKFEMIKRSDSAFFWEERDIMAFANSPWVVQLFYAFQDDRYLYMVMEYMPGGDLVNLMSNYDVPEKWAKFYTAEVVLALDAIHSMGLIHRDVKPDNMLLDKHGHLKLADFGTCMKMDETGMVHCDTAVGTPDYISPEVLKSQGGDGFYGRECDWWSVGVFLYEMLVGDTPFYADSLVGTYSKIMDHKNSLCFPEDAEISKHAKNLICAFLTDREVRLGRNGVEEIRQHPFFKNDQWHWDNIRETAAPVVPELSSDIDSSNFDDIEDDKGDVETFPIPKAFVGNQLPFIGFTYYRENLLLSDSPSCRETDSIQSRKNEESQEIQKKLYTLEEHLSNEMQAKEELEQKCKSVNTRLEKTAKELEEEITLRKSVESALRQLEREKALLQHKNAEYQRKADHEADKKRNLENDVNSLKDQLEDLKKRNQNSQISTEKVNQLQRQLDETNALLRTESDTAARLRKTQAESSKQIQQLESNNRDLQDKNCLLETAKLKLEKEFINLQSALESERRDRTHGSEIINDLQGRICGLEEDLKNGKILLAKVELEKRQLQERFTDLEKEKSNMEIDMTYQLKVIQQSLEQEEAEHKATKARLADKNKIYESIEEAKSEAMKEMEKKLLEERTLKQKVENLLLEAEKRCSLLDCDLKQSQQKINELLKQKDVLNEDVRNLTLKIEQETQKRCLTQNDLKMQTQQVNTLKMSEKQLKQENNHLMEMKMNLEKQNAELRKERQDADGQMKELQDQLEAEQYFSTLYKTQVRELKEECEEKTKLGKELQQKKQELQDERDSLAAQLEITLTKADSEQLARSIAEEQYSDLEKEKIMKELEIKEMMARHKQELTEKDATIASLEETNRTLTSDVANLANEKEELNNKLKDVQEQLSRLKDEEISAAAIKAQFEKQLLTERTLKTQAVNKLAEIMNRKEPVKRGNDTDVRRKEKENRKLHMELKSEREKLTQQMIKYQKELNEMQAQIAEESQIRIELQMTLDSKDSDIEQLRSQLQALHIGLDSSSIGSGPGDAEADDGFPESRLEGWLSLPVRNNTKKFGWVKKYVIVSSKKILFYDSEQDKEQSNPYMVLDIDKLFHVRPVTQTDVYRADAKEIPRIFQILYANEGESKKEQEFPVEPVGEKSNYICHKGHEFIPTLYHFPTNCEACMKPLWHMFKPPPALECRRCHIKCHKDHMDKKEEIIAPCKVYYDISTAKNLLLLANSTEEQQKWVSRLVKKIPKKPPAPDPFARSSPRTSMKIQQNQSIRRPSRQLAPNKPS

Structure (SMILES)	Ki (ROCK 2) [nM]	Ki (ROCK 1) [nM]
O=C(Nc1cc(-c2c[nH]c3nccc(Oc4ccc5c(c4)CNCC5)c23)ccn1)C1CCOCC1 [Example 41, N-(4-(4-((1,2,3,4-tetrahydroisoquinolin-7-yl)oxy)-1H-pyrrolo[2,3-b]pyridin-3-yl)pyridin-2-yl)tetrahydro-2H-pyran-4-carboxamide]	< 3	< 3
CC(C)OCC(=O)Nc1cc(-c2c[nH]c3nccc(Oc4ccc5c(c4)CNCC5)c23)ccn1 [Example 42, 2-isopropoxy-N-(4-(4-((1,2,3,4-tetrahydroisoquinolin-7-yl)oxy)-1H-pyrrolo[2,3-b]pyridin-3-yl)pyridin-2-yl)acetamide]	< 3	< 3
O=C(CN1CCCCC1)Nc1cc(-c2c[nH]c3nccc(Oc4ccc5c(c4)CNCC5)c23)ccn1 [Example 43, 2-(piperidin-1-yl)-N-(4-(4-((1,2,3,4-tetrahydroisoquinolin-7-yl)oxy)-1H-pyrrolo[2,3-b]pyridin-3-yl)pyridin-2-yl)acetamide]	< 3	< 3
CC1(C(=O)Nc2cc(-c3c[nH]c4nccc(Oc5ccc6c(c5)CNCC6)c34)ccn2)CC1 [Example 44, 1-methyl-N-(4-(4-((1,2,3,4-tetrahydroisoquinolin-7-yl)oxy)-1H-pyrrolo[2,3-b]pyridin-3-yl)pyridin-2-yl)cyclopropanecarboxamide]	< 3	3 to 30
NC(C(=O)Nc1cc(-c2c[nH]c3nccc(Oc4ccc5c(c4)CNCC5)c23)ccn1)c1ccccc1 (centres unmarked) [Example 45, 2-amino-2-phenyl-N-(4-(4-((1,2,3,4-tetrahydroisoquinolin-7-yl)oxy)-1H-pyrrolo[2,3-b]pyridin-3-yl)pyridin-2-yl)acetamide]	< 3	< 3
CC1(C)CCN(C(=O)Nc2cc(-c3c[nH]c4nccc(Oc5ccc6c(c5)CNCC6)c34)ccn2)CC1 [Example 46, 4,4-dimethyl-N-(4-(4-((1,2,3,4-tetrahydroisoquinolin-7-yl)oxy)-1H-pyrrolo[2,3-b]pyridin-3-yl)pyridin-2-yl)piperidine-1-carboxamide]	< 3	3 to 30
CN(C(=O)Nc1cc(-c2c[nH]c3nccc(Oc4ccc5c(c4)CNCC5)c23)ccn1)C1CCCCC1 [Example 47, 1-cyclohexyl-1-methyl-3-(4-(4-((1,2,3,4-tetrahydroisoquinolin-7-yl)oxy)-1H-pyrrolo[2,3-b]pyridin-3-yl)pyridin-2-yl)urea]	< 3	< 3
CN(C(=O)Nc1cc(-c2c[nH]c3nccc(Oc4ccc5c(c4)CNCC5)c23)ccn1)C1CCOCC1 [Example 48, 1-methyl-1-(tetrahydro-2H-pyran-4-yl)-3-(4-(4-((1,2,3,4-tetrahydroisoquinolin-7-yl)oxy)-1H-pyrrolo[2,3-b]pyridin-3-yl)pyridin-2-yl)urea]	< 3	3 to 30
c1ccc(CNc2cc(-c3c[nH]c4nccc(Oc5cnc6c(c5)CNCC6)c34)ccn2)cc1 [Example 49, N-benzyl-4-(4-((5,6,7,8-tetrahydro-1,6-naphthyridin-3-yl)oxy)-1H-pyrrolo[2,3-b]pyridin-3-yl)pyridin-2-amine]	> 30	> 30
O=C(Nc1cc(-c2c[nH]c3nccc(Oc4ccc5c(c4)CNCC5)c23)ncn1)c1ccccc1 [Example 50, N-(6-(4-((1,2,3,4-tetrahydroisoquinolin-7-yl)oxy)-1H-pyrrolo[2,3-b]pyridin-3-yl)pyrimidin-4-yl)benzamide]	< 3	3 to 30
c1ccc(CNc2cncc(-c3c[nH]c4nccc(Oc5ccc6c(c5)CNCC6)c34)c2)cc1 [Example 51, N-benzyl-5-(4-((1,2,3,4-tetrahydroisoquinolin-7-yl)oxy)-1H-pyrrolo[2,3-b]pyridin-3-yl)pyridin-3-amine]	< 3	3 to 30

Next, values leading:

Ki (ROCK 2) [nM]	Ki (ROCK 1) [nM]	Structure (SMILES)
< 3	< 3	c1nc(NCc2nccs2)cc(-c2c[nH]c3nccc(Oc4ccc5c(c4)CNCC5)c23)n1 [Example 30, 6-(4-((1,2,3,4-tetrahydroisoquinolin-7-yl)oxy)-1H-pyrrolo[2,3-b]pyridin-3-yl)-N-(thiazol-2-ylmethyl)pyrimidin-4-amine]
< 3	< 3	NCc1ccc(Oc2ccnc3[nH]cc(-c4cc(NCc5ccccc5)ncn4)c23)c(F)c1 [Example 31, 6-(4-(4-(aminomethyl)-2-fluorophenoxy)-1H-pyrrolo[2,3-b]pyridin-3-yl)-N-benzylpyrimidin-4-amine]
< 3	3 to 30	NCc1ccc(Oc2ccnc3[nH]cc(-c4ccnc(NCc5ccccc5)n4)c23)c(F)c1 [Example 32, 4-(4-(4-(aminomethyl)-2-fluorophenoxy)-1H-pyrrolo[2,3-b]pyridin-3-yl)-N-benzylpyrimidin-2-amine]
< 3	3 to 30	NCc1ccc(Oc2ccnc3[nH]cc(-c4ccnc(NCc5ccccc5)c4)c23)c(F)c1 [Example 33, 4-(4-(4-(aminomethyl)-2-fluorophenoxy)-1H-pyrrolo[2,3-b]pyridin-3-yl)-N-benzylpyridin-2-amine]
< 3	3 to 30	NCc1ccc(Oc2ccnc3[nH]cc(-c4cnc(NC(=O)Cc5ccccc5)s4)c23)cc1 [Example 34, N-(5-(4-(4-(aminomethyl)phenoxy)-1H-pyrrolo[2,3-b]pyridin-3-yl)thiazol-2-yl)-2-phenylacetamide]
< 3	< 3	c1cc(-c2c[nH]c3nccc(Oc4ccc5c(c4)CNCC5)c23)cc(NCc2nccs2)n1 [Example 35, 4-(4-((1,2,3,4-tetrahydroisoquinolin-7-yl)oxy)-1H-pyrrolo[2,3-b]pyridin-3-yl)-N-(thiazol-2-ylmethyl)pyridin-2-amine]
< 3	< 3	c1cc(-c2c[nH]c3nccc(Oc4ccc5c(c4)CNCC5)c23)cc(NCC2CC2)n1 [Example 36, N-(cyclopropylmethyl)-4-(4-((1,2,3,4-tetrahydroisoquinolin-7-yl)oxy)-1H-pyrrolo[2,3-b]pyridin-3-yl)pyridin-2-amine]
< 3	3 to 30	Cc1ccc(CNc2cc(-c3c[nH]c4nccc(Oc5ccc6c(c5)CNCC6)c34)ccn2)nc1 [Example 37, N-((5-methylpyridin-2-yl)methyl)-4-(4-((1,2,3,4-tetrahydroisoquinolin-7-yl)oxy)-1H-pyrrolo[2,3-b]pyridin-3-yl)pyridin-2-amine]
< 3	< 3	c1cc(-c2c[nH]c3nccc(Oc4ccc5c(c4)CNCC5)c23)cc(NCC2CCOCC2)n1 [Example 38, N-((tetrahydro-2H-pyran-4-yl)methyl)-4-(4-((1,2,3,4-tetrahydroisoquinolin-7-yl)oxy)-1H-pyrrolo[2,3-b]pyridin-3-yl)pyridin-2-amine]
< 3	3 to 30	O=C(Nc1cc(-c2c[nH]c3nccc(Oc4ccc5c(c4)CNCC5)c23)ccn1)C1CC1 [Example 39, N-(4-(4-((1,2,3,4-tetrahydroisoquinolin-7-yl)oxy)--1H-pyrrolo[2,3-b]pyridin3-yl)pyridin-2-yl)cyclopropanecarboxamide]
< 3	< 3	O=C(Nc1cc(-c2c[nH]c3nccc(Oc4ccc5c(c4)CNCC5)c23)ccn1)C1CCCCC1 [Example 40, N-(4-(4-((1,2,3,4-tetrahydroisoquinolin-7-yl)oxy)-1H-pyrrolo[2,3-b]pyridin-3-yl)pyridin-2-yl)cyclohexanecarboxamide]
